Measurements taken from the OPERA property sets (Mansouri et al. 2018).
Values after ≈ are worked out from the molar mass of the structure shown.

Details: not given

| SMILES | logP | solubility |
| --- | --- | --- |
| C=CCN1CCC(CNC(=O)c2cc3nn[nH]c3cc2OC)C1 (stereo not drawn) | 0.95 |  |
| CC(=O)N[C@@H](Cc1ccccc1)C(=O)O | 0.93 |  |
| COc1ccc(C=[N+]([O-])C(C)(C)C)cc1 | 1.21 |  |
| Nc1cnn(-c2ccccc2)c(=O)c1Cl | 1.14 |  |
| CC(=O)N[C@@H](C)C(=O)N[C@@H](C)C(N)=O | -2 |  |
| C#CCN1C(=O)COc2cc(F)c(N3C(=O)C4=C(CCCC4)C3=O)cc21 | 2.55 |  |
| CC(=O)N(C)S(=O)(=O)c1ccc(C)cc1 | 1.73 |  |
| CC(C)(O)C(=O)Nc1ccc([N+](=O)[O-])c(C(F)(F)F)c1 | 2.7 |  |
| CCN(CC)CCCC(C)N=c1cc2n(-c3ccc(Cl)cc3)c3ccccc3nc-2cc1Nc1ccc(Cl)cc1 (stereo not drawn) | 7.92 |  |
| COc1cccc(Nc2ccccc2C(=O)O)c1 | 4.31 |  |
| O=C(CCCN1CCC(O)(c2ccc(Cl)cc2)CC1)c1ccc(F)cc1 | 4.3 |  |
| COc1ccc(Nc2ccnc3cc(Cl)ccc23)cc1 | 4.94 |  |
| CCCN1CCOC2c3cc(O)ccc3CCC21 (stereo not drawn) | 2.44 |  |
| O=C1CC[C@@]2(O)[C@H]3Cc4ccc(O)c5c4[C@@]2(CCN3CC2CC2)[C@H]1O5 | 1.92 |  |
| C=CC(=O)NCCCN1CCOCC1 | -0.53 |  |
| Oc1c(O)c(Cl)c(Cl)c(Cl)c1Cl |  | 0.0109 mM (≈ 0.0027 mg/mL) |
| CN(C)CCc1ccccn1 | 1.12 |  |
| CC(C)(C)c1cccc(OP(=O)(Oc2ccccc2)Oc2ccccc2)c1 | 5.12 |  |
| N#CCCCCCCCCC#N | 1.75 |  |
| CN(C)CCCN1c2ccccc2Sc2ccccc21.Cl | 2.94 |  |
| CCn1cc(C(=O)O)c(=O)c2cc(F)c(N3CCNC(C)C3)c(F)c21 (stereo not drawn) | -0.3 |  |
| CCON=C(CC)C1=C(O)CC(c2c(C)cc(C)cc2C)CC1=O (stereo not drawn) | 4.46 |  |
| N[C@@H](Cc1ccc(O)c(O)c1)C(=O)OCCc1ccccc1 | 1.76 |  |
| COc1c2ccoc2cc2oc(=O)ccc12 | 1.93 |  |
| CCCc1oc(C)cc(=O)c1O | 1.4 |  |

Same assay, conditions: 20 °C

| SMILES | solubility |
| --- | --- |
| COP(=S)(OC)Oc1nc(Cl)c(Cl)cc1Cl | 0.0148 mM (≈ 0.00476 mg/mL) |
| CCNc1nc(NCC)nc(OC)n1 | 16.2 mM (≈ 3.2 mg/mL) |
| CCOC(C)(C)CC | 3.44 mM (≈ 0.4 mg/mL) |
| CC1=C(c2ccccc2)C(=O)N(C(C)(C)c2cc(Cl)cc(Cl)c2)CO1 | 0.000478 mM (≈ 0.00018 mg/mL) |

Same assay, conditions: 24 °C

| SMILES | solubility |
| --- | --- |
| c1ccc2cc3ccccc3cc2c1 | 0.000244 mM (≈ 4.34e-05 mg/mL) |

Same assay, conditions: 25 °C

| SMILES | solubility |
| --- | --- |
| Cc1c2ccccc2c(C)c2c1ccc1ccccc12 | 0.000152 mM (≈ 3.9e-05 mg/mL) |
| CC(=O)c1ccc(-c2ccccc2)cc1 | 0.489 mM (≈ 0.096 mg/mL) |
| CCCCC(CC)COC(=O)c1ccccc1C(=O)OCC(CC)CCCC (stereo not drawn) | 0.000108 mM (≈ 4.2e-05 mg/mL) |
| O=C(O)C(Br)Br | 9690 mM (≈ 2110 mg/mL) |
| CN(C)c1ccc(N=NS(=O)(=O)[O-])cc1.[Na+] | 79.6 mM |
| FC(F)(Cl)Cl | 2.32 mM (≈ 0.28 mg/mL) |
| c1ccc2c(c1)-c1cccc3cccc-2c13 | 0.00114 mM (≈ 0.000231 mg/mL) |
| CCN(CC)c1ccccc1 | 0.938 mM (≈ 0.14 mg/mL) |
| OCC#CCO | 4340 mM (≈ 374 mg/mL) |
| OCCCc1ccccc1 | 41.7 mM (≈ 5.68 mg/mL) |
| CCC(Cl)CC | 2.34 mM (≈ 0.249 mg/mL) |
| CC(Br)CBr (stereo not drawn) | 7.15 mM (≈ 1.44 mg/mL) |
| ClC1=C(Cl)C2(Cl)C3C4OC4C(Cl)C3C1(Cl)C2(Cl)Cl (stereo not drawn) | 0.000514 mM (≈ 0.0002 mg/mL) |
| NS(=O)(=O)c1cc2c(s1)SCCC2=O | 0.281 mM (≈ 0.07 mg/mL) |
| ClC1=C(Cl)[C@]2(Cl)[C@@H]3[C@@H]4C[C@@H]([C@H]5O[C@@H]45)[C@@H]3[C@@]1(Cl)C2(Cl)Cl (single isomer, unassigned) | 0.00058 mM (≈ 0.000221 mg/mL) |
| OCCNc1ccccc1 | 335 mM (≈ 46 mg/mL) |
| C#CCN1C(=O)COc2cc(F)c(N3C(=O)C4=C(CCCC4)C3=O)cc21 | 0.00505 mM (≈ 0.00179 mg/mL) |
| COC(=O)COc1ccc(Cl)cc1Cl | 1.1 mM (≈ 0.258 mg/mL) |
| Oc1cc(Cl)c(Cl)cc1Cl | 6.08 mM (≈ 1.2 mg/mL) |
| ClC1=C(Cl)C(Cl)(Cl)C(Cl)=C1Cl | 0.0066 mM (≈ 0.0018 mg/mL) |
| C=C(C)C(=O)OCCCC | 5.63 mM (≈ 0.8 mg/mL) |
| CCOC(=O)COc1cc(Cl)c(Cl)cc1Cl | 0.0141 mM (≈ 0.00401 mg/mL) |
| CCCCCCCCCCCCC | 2.55e-05 mM (≈ 4.7e-06 mg/mL) |
| CCCCOCCOC(=O)COc1ccc(Cl)cc1Cl | 0.0374 mM (≈ 0.012 mg/mL) |
| CCCCC(CC)CO (stereo not drawn) | 6.02 mM (≈ 0.785 mg/mL) |

Same assay, conditions: 25.0 °C

| SMILES | log10 OH rate constant (cm³/molecule/s) |
| --- | --- |
| CCC(C)(C)OC | -11.3 |
| c1ccc2cc3ccccc3cc2c1 | -9.96 |
| CCCCBr | -11.6 |
| c1ccc2c(c1)-c1cccc3cccc-2c13 | -10.3 |
| CCNc1nc(Cl)nc(NC(C)(C)C)n1 | -11 |
| COC(=O)CCCC(=O)OC | -11.5 |
| FC(F)(F)COCC(F)(F)F | -12.8 |
| CC1CCCO1 (stereo not drawn) | -10.7 |
| O=C(O)C(F)(F)F | -12.9 |
| C=CCOC(F)(F)C(F)F | -10.7 |
| CCOC(F)(F)C(F)F | -12.6 |

Same assay, conditions: 27.0 °C

| SMILES | log10 OH rate constant (cm³/molecule/s) |
| --- | --- |
| O=Cc1ccoc1 | -10.3 |
| O=C1C=CC(=O)C=C1 | -11.3 |
| Cc1ccco1 | -10.2 |

Same assay, conditions: 30 °C

| SMILES | solubility |
| --- | --- |
| Cc1ccc([N+](=O)[O-])cc1 | 3.22 mM (≈ 0.442 mg/mL) |
| Brc1ccccc1 | 2.84 mM (≈ 0.446 mg/mL) |
| COc1ccccc1[N+](=O)[O-] | 11 mM (≈ 1.69 mg/mL) |

Same assay, conditions: pH 7.4

| SMILES | logD |
| --- | --- |
| N[C@@H](Cc1ccc(N(CCCl)CCCl)cc1)C(=O)O | -0.52 |
